Results as given in patent US20060194230A1, “Genetic markers associated with benign prostatic hyperplasia” (BAYLOR COLLEGE OF MEDICINE, priority 2005, published 2006).

Tests used:
[1] = system: hyperplastic prostatic tissue; settings: cited from earlier work
[2] = system: prostate transition zone tissue; experiment: Microarray (Affymetrix U133 Plus 2.0) gene expression in prostates of patients treated with finasteride, tamsulosin or both before radical prostatectomy (Table 7); format: in vivo, human; settings: patients treated 2, 4 or 6 weeks before prostatectomy; minus sign = down regulation
Method: In non-limiting exemplary embodiments of the invention, a randomized, open-label, single-center study was performed to determine the spatio-temporal changes in gene expression within the prostate of patients who receive 0.4 mg of Flomax® (tamsulosin) capsules daily, 5 mg of Proscar® (finasteride) tablets daily, or both for either 6, 4, or 2 weeks prior to radical prostatectomy. Tissue samples from radical prostatectomy specimens were obtained under an ongoing IRB-approved protocol (H-1158). Zone-specific tissue samples from patients undergoing radical prostatectomy for clinically localized prostate cancer were harvested and frozen in liquid nitrogen for later analysis. In addition to prostate cancer tissue samples, samples from the transition zone from these patients have also been harvested. Participants were randomly allocated to one of three drug treatment arms, after being categorized into one of three groups according to the duration from enrollment date to scheduled surgery date. BPH related symptoms were assessed using self-administered BPH symptom questionnaires at day of enrollment and every 2 weeks (no clinic visit required) until surgery. Medication compliance is assessed at the time of radical prostatectomy. FIG. 1 illustrates an exemplary randomized block design with variable block size for randomly assigning participants to nine treatment groups. After standard quality control analysis of extracted mRNA, 20 samples from patient prostates treated with either finasteride, tamsulosin, or both drugs together for 2, 4, or 6 weeks, were subjected to microarray chip hybridization (in conjunction with the Baylor College of Medicine Microarray Core Facility). In Table 6, patients were treated with the 5-alpha reductase inhibitor, Finasteride (FIN), or the alpha-1 adrenergic receptor antagonist, Tamsulosin (TAM), or both drugs together (FIN+TAM) for the times indicated prior to prostatectomy. Samples were used in Affymetrix U133 Plus 2.0 microarray analysis as shown. Through this analysis, a number of genes (listed in Table 7) were identified whose expression was modulated by drug treatment. These genes are associated with inflammatory pathways (an exemplary embodiment of which is provided in FIG. 2), Wnt signaling pathway (an exemplary embodiment of which is provided in FIG. 3); cell signaling and cell cycle regulatory pathway (an exemplary embodiment of which is provided in FIG. 4), or extracellular matrix remodeling. Although several of these genes have previously been implicated in prostate cancer progression, they have not been described in connection with progression of BPH or in connection with the exemplary drug treatment regimes described above. In Table 7, there are polynucleotides showing 1.3-77 fold changes in expression level after drug treatment. Down regulation after drug treatment is signified by “-” in front of the fold change. In particular embodiments, the information may be obtained at particular timepoints following the onset of therapy, such as about 1 day, 2 days, 3 days, 4 days, 5 days, 6 days, 1 week, 2 weeks, 3 weeks, 4 weeks, 5 weeks, 6 weeks, 7 weeks, 8 weeks, or combinations thereof, or more or less, for example. In the specific embodiments wherein more than one timepoint is evaluated, an average of the timepoints may be obtained.

TZ BPH prostate tissue = experiment: Microarray gene expression in TZ BPH nodular tissue of drug treated patients, dChip/ANOVA analysis (Table 11); format: in vivo, human; settings: for expression of the five markers MIG (CXCL9), IP 10 (CXCL10), I-TAC (CXCL11), Contactin-1 (CNTN1), Dickkopf-3 (DKK3): TZ BPH tissue from treated patients versus untreated BPH tissue
Excerpt: In specific embodiments of the present invention, the inventors employed the exemplary Affymetrix U133 Plus 2.0 whole genome microarrays to profile gene expression in the transition zone (TZ) of small (≦30 g) and big (≧70 g) prostates. In addition, they also profiled gene expression changes in TZ benign prostatic hyperplasia (BPH) tissue from patients treated with α1-receptor blockade (tamsulosin), 5α-reductase type II inhibition (finasteride), or both medications combined. Integrating the results from these profiles led to the discovery of 5 exemplary polynucleotides that in specific embodiments are diagnostic and/or prognostic biomarkers for BPH. These exemplary markers include the three interferon inducible pro-inflammatory chemokines, MIG (CXCL9), IP 10 (CXCL10), and I-TAC (CXCL11), the adhesion molecule Contactin-1 (CNTN1), the Wnt pathway signaling inhibitor Dickkopf-3 (DKK3), and any combination thereof. […] In further specific embodiments, the mechanisms by which these inflammatory BPH markers are induced and their influence on prostate hyperplasia is determined.
To address the second specific embodiment, patients awaiting radical prostatectomy were given a standard therapeutic course of tamsulosin, finasteride or both tamsulosin and finasteride for 2, 4, or 6 weeks prior to surgery. TZ BPH nodular tissue was isolated post surgery. Total RNA was purified from 24 samples from individual patients and analyzed using Affymetrix U133 Plus 2.0 microarrays. Of the 24 arrays run on drug treated patient prostates, 7 were ultimately excluded from the final analysis due poor signal quality within the arrays.
Expression levels from drug treated prostate tissue were analyzed with dChip. Comparison of changes in gene expression between drugs and between time of therapy was performed by ANOVA. This initial analysis yielded 3568 genes with significant a difference (p≦0.01) in at least 1 comparison. […] Genes regulated by drug treatment were grouped by pathway or common function and those showing multiple changes in expression are shown in Table 11.

prostate RNA samples = experiment: Real-time quantitative RT-PCR validation in prostate samples from drug treated patients; format: in vivo, human; settings: BPH nodules, drug treatment versus no drug
Method: To further refine the list of genes profiled in the microarray studies, the differential expression of 30 of these genes were tested by real-time quantitative RT-PCR (Q-RT-PCR). Since Q-RT-PCR is based on the detection of small amplimers (80-150 base pairs) it. is less affected by RNA degradation than microarrays. This allowed the inventors to used a larger sample set of prostate RNA than were included in the microarray analyses. The inventors tested […] small and 10 big prostate samples (including the 15 samples from the array analysis) and 24 samples from drug treated patients (10 treated with finasteride, 7 treated with tamsulosin, and 7 treated with both drugs). Individual comparisons were made between small and big prostates and between no drug (all 18 small and big samples) and drug treatments for each therapy drug condition without consideration of the treatment duration. Several groups of genes validated with significant differences by Q-RT-PCR between small and big prostate and/or those regulated by at least one drug treatment. The three pro-inflammatory chemokines CXCL9 (MIG), CXCL10 (IP-10), and CXCL11 (I-TAC) are best known for production by monocytes as chemotactic agents for T cells (Kim and Broxmeyer, 1999). […]

prostate cell lines [3] = experiment: Induction of potential BPH markers in prostate cell lines cultured with androgen or inflammatory agents; format: cell-based, human; settings: non-cancer prostate cell lines cultured in the presence of the agent
Method: To confirm the expression of CXCL9, 10 and 11, contactin 1 and CXCR3 in prostate tissue, the present inventors examined several non-cancer prostate cell lines for these markers. The prostate epithelial cells RWPE-1 and PWR-1E are androgen responsive nomal or hyperplastic cells transformed with HPV1828, 29. The epithelial cell line BPH 130 is originated from BPH tissue transformed with SV40 T antigen. […] Cells were cultured in their prescribed media and were fixed, permeabilized and stained by standard methods and analyzed by single color flow cytometry. […] To determine if prostate cell expression of CXCL chemokines was responsive to interferon stimulation, stromal and epithelial cell lines were cultured in the presence of IFNγ. Chemokine induction was measured by Q-RT-PCR and is shown as fold induction over basal expression in untreated cells (FIG. 12).

prostate cell lines [4] = format: cell-based, human; settings: 4 prostate cell lines, with or without 100 U/ml IFNγ, Q-RT-PCR
Method: 4 prostate cell lines were cultured in media with or without 100 U/ml IFNγ. Chemokine expression was determined by Q-RT-PCR and induction calculated using the 2^−ΔΔCt method compared to untreated cells.
To confirm the expression of CXCL9, 10 and 11, contactin 1 and CXCR3 in prostate tissue, the present inventors examined several non-cancer prostate cell lines for these markers. The prostate epithelial cells RWPE-1 and PWR-1E are androgen responsive nomal or hyperplastic cells transformed with HPV1828, 29. The epithelial cell line BPH 130 is originated from BPH tissue transformed with SV40 T antigen. The cell lines HTS-2T and HPS-19B are primary prostate stromal cell lines from TZ and PZ, respectively (Singh et al., 2004). Cells were cultured in their prescribed media and were fixed, permeabilized and stained by standard methods and analyzed by single color flow cytometry. The chemokines CXCL9, 10 and 11 were present in all cells tested as was contactin 1 (FIG. 11). DKK3 was not tested for lack of a suitable antibody for flow cytometric analysis. CXCR3 was highly expressed in all the cells. […] Chemokine induction was measured by Q-RT-PCR and is shown as fold induction over basal expression in untreated cells (FIG. 12). […]

[5] = treatment with drug between 2 and 6 weeks, TZ BPH tissue

Molecule: COc1cc2nc(N3CCN(C(=O)C4COc5ccccc5O4)CC3)nc(N)c2cc1OC (stereo not shown) [doxazosin]
- apoptosis in the stromal compartment of hyperplastic prostatic tissue ([1]; alpha blockade): increases
- overall re-occurrence rate of BPH ([1]; alpha blockade): does not decrease

Molecule: CCOc1ccccc1OCCN[C@H](C)Cc1ccc(OC)c(S(N)(=O)=O)c1 [Tamsulosin, tamsulosin]
- CKTSF1B1 (Gremlin) expression fold change after drug treatment [2]: −4.76 fold
- CXCL9 expression fold change after drug treatment [2]: −3.37 fold
- CXCL10 expression fold change after drug treatment [2]: −4.65 fold
- CXCL11 expression fold change after drug treatment [2]: −5.81 fold
- Cbl-b expression fold change after drug treatment [2]: 1.30 fold
- CyclophilinC expression fold change after drug treatment [2]: −1.87 fold
- Dicer 1 expression fold change after drug treatment [2]: 1.30 fold
- Frizzled 10 expression fold change after drug treatment [2]: −1.82 fold
- HLA-DP expression fold change after drug treatment [2]: −2.33 fold
- HS3ST3B1 expression fold change after drug treatment [2]: −2.20 fold
- ORM1 expression fold change after drug treatment [2]: 76.96 fold
- VEGF expression fold change after drug treatment [2]: −2.01 fold
- WIF1 expression fold change after drug treatment [2]: −4.60 fold
- expression of the five markers MIG (CXCL9), IP 10 (CXCL10), I-TAC (CXCL11), Contactin-1 (CNTN1), Dickkopf-3 (DKK3) (TZ BPH prostate tissue): decreased
- CKTSF1B1 (Gremlin) differential gene expression (TZ BPH prostate tissue; [5]): −4.76 fold
- CXCL9 differential gene expression (TZ BPH prostate tissue; [5]): −2.86 fold
- DKK3 differential gene expression (TZ BPH prostate tissue; [5]): −2.85 fold
- HLA-DP differential gene expression (TZ BPH prostate tissue; [5]): −2.33 fold
- HS3ST3B1 differential gene expression (TZ BPH prostate tissue; [5]): −2.20 fold
- ORM1 differential gene expression (TZ BPH prostate tissue; [5]): 76.96 fold
- VEGF differential gene expression (TZ BPH prostate tissue; [5]): −2.01 fold
- WIF1 differential gene expression (TZ BPH prostate tissue; [5]): −4.60 fold
- expression of chemokines CXCL9 (MIG), CXCL10 (IP-10), CXCL11 (I-TAC) (prostate RNA samples): decreased

Molecule: CC(C)(C)NC(=O)[C@H]1CC[C@H]2[C@@H]3CC[C@H]4NC(=O)C=C[C@]4(C)[C@H]3CC[C@]12C [Finasteride, finasteride]
- CKTSF1B1 (Gremlin) expression fold change after drug treatment [2]: −4.10 fold
- CXCL9 expression fold change after drug treatment [2]: −2.85 fold
- CXCL10 expression fold change after drug treatment [2]: −2.01 fold
- CXCL11 expression fold change after drug treatment [2]: −2.62 fold
- CyclophilinC expression fold change after drug treatment [2]: −2.52 fold
- DKK3 expression fold change after drug treatment [2]: −2.28 fold
- Frizzled 10 expression fold change after drug treatment [2]: −2.45 fold
- HLA-DP expression fold change after drug treatment [2]: −2.29 fold
- HS3ST3B1 expression fold change after drug treatment [2]: −2.29 fold
- KLK4 expression fold change after drug treatment [2]: −3.47 fold
- ORM1 expression fold change after drug treatment [2]: 2.38 fold
- SPROUTY2 expression fold change after drug treatment [2]: −1.94 fold
- VEGF expression fold change after drug treatment [2]: −2.15 fold
- WIF1 expression fold change after drug treatment [2]: −7.53 fold
- ZNF36 expression fold change after drug treatment [2]: −1.55 fold
- expression of the five markers MIG (CXCL9), IP 10 (CXCL10), I-TAC (CXCL11), Contactin-1 (CNTN1), Dickkopf-3 (DKK3) (TZ BPH prostate tissue): decreased
- CKTSF1B1 (Gremlin) differential gene expression (TZ BPH prostate tissue; [5]): −4.10 fold
- CTNNB1 differential gene expression (TZ BPH prostate tissue; [5]): 2.26 fold
- CXCL9 differential gene expression (TZ BPH prostate tissue; [5]): −3.61 fold
- Frizzled 10 differential gene expression (TZ BPH prostate tissue; [5]): −2.45 fold
- HLA-DP differential gene expression (TZ BPH prostate tissue; [5]): −2.29 fold
- HS3ST3B1 differential gene expression (TZ BPH prostate tissue; [5]): −2.29 fold
- KLK4 differential gene expression (TZ BPH prostate tissue; [5]): −3.47 fold
- ORM1 differential gene expression (TZ BPH prostate tissue; [5]): 2.38 fold
- VEGF differential gene expression (TZ BPH prostate tissue; [5]): −2.15 fold
- WIF1 differential gene expression (TZ BPH prostate tissue; [5]): −7.53 fold
- expression of chemokines CXCL9 (MIG), CXCL10 (IP-10), CXCL11 (I-TAC) (prostate RNA samples): decreased
- reduction of prostate growth ([1]; over the first year, without recurrance of significant prostatic growth): ≤ 20%

Molecule: C[C@]1(O)CC[C@H]2[C@@H]3CCC4=CC(=O)CCC4=C3C=C[C@@]21C [R1881]
- changes in BPH marker expression (CXCL9, 10, 11, contactin 1, CXCR3) (prostate cell lines [3]): No changes

B1: IFNγ: interferon-γ used to stimulate prostate cell lines, 100 U/ml (protein, UniProt P01579 24-161, looked up)
Interferon gamma: QDPYVKEAENLKKYFNAGHSDVADNGTLFLGILKNWKEESDRKIMQSQIVSFYFKLFKNFKDDQSIQKSVETIKEDMNVKFFNSNKKKRDDFEKLTNYSVTDLNVQRKAIHELIQVMAELSPAAKTGKRKRSQMLFRG
- CXCL chemokine expression in prostate cells (prostate cell lines [4]): up-regulated
